Laboratory results reported in patent US12495798B2, “Nicotinamide compound and herbicidal composition comprising compound” (KOREA RESEARCH INSTITUTE OF CHEMICAL TECHNOLOGY, priority 2019, dated 2025).

Columns and labels:
Format in all cases: in vivo
[1] = tested on: velvetleaf; test: Herbicidal activity test against upland field weeds (foliar treatment test); set-up: key to Foliar treatment herbicidal activity, velvet leaf: 0 (no control); 100 (complete control); details: 50 g ai/ha; for pest or weed control at 50 g/ha: Abutilon theophrasti, scale 0-100, read-out: Foliar treatment herbicidal activity, velvet leaf
In short: (§1)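 Greenhouse-grown plants (30±5 °C, 14/10 h light/dark) foliar hand-sprayed with compound in 50% acetone, 0.1% Tween-20 at 50 or 75 g a.i./ha. Control visually scored 0 (none) to 100 (complete) versus untreated after 14 days, or 21 days if needed.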

[2] = tested on: crabgrass; test: as above; set-up: key to Foliar treatment herbicidal activity, Crabgrass: 0 (no control); 100 (complete control); details: 50 g ai/ha, scale 0-100
In short: as §1

[3] = tested on: quack grass; test: as above; set-up: key to Foliar treatment herbicidal activity, quack grass: 0 (no control); 100 (complete control); details: 50 g ai/ha, scale 0-100
In short: as §1

[4] = tested on: barnyard grass; test: Herbicidal activity test against upland field weeds (soil treatment test); set-up: key to Soil treatment herbicidal activity, barnyard grass: 0 (no control); 100 (complete control); details: 50 g ai/ha, scale 0 (no control) to 100 (complete control)
In short: (§2)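 Pre-emergence soil surface spray, day after sowing, into sandy loam pots with fertilizer; compounds at 50 or 75 g a.i./ha in 50% acetone, 0.1% Tween-20. Greenhouse at 30±5 °C, 14/10 h light/dark; visual control rated 0–100 against untreated after 14 days (21 if needed).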

[5] = tested on: indian jointvetch; test: as above; set-up: key to Soil treatment herbicidal activity, Indian jointvetch: 0 (no control); 100 (complete control); details: 50 g ai/ha, scale 0 (no control) to 100 (complete control)
In short: as §2

[6] = tested on: bindweed; test: as above; set-up: key to Soil treatment herbicidal activity, Bindweed: 0 (no control); 100 (complete control); details: 50 g ai/ha, scale 0 (no control) to 100 (complete control)
In short: as §2

[7] = tested on: fall panicum; test: as above; set-up: key to Soil treatment herbicidal activity, Fall panicum: 0 (no control); 100 (complete control); details: 50 g ai/ha, scale 0 (no control) to 100 (complete control)
In short: as §2

[8] = tested on: indian jointvetch; test: Herbicidal activity test against upland field weeds (foliar treatment test); set-up: key to Foliar treatment herbicidal activity, Indian jointvetch: 0 (no control); 100 (complete control); details: 50 g ai/ha, scale 0-100
In short: as §1

[9] = tested on: quack grass; test: Herbicidal activity test against upland field weeds (soil treatment test); set-up: key to Soil treatment herbicidal activity, quack grass: 0 (no control); 100 (complete control); details: 50 g ai/ha, scale 0 (no control) to 100 (complete control)
In short: as §2

[10] = tested on: sorghum; test: Herbicidal activity test against upland field weeds (foliar treatment test); set-up: key to Foliar treatment herbicidal activity, Sorghum: 0 (no control); 100 (complete control); details: 50 g ai/ha, scale 0-100
In short: as §1

[11] = tested on: black nightshade; test: as above; set-up: key to Foliar treatment herbicidal activity, black nightshade: 0 (no control); 100 (complete control); details: 50 g ai/ha, scale 0-100; for pest or weed control at 50 g/ha: Solanum nigrum
In short: as §1

[12] = tested on: barnyard grass; test: as above; set-up: key to Foliar treatment herbicidal activity, barnyard grass: 0 (no control); 100 (complete control); details: 50 g ai/ha, scale 0-100
In short: as §1

[13] = tested on: bindweed; test: as above; set-up: key to Foliar treatment herbicidal activity, Bindweed: 0 (no control); 100 (complete control); details: 50 g ai/ha, scale 0-100
In short: as §1

[14] = tested on: black nightshade; test: Herbicidal activity test against upland field weeds (soil treatment test); details: Solanum nigrum, 50 g ai/ha, scale 0 (no control) to 100 (complete control)
In short: as §2

[15] = tested on: sorghum; test: as above; set-up: key to Soil treatment herbicidal activity, Sorghum: 0 (no control); 100 (complete control); details: 50 g ai/ha, scale 0 (no control) to 100 (complete control)
In short: as §2

[16] = tested on: cocklebur; test: as above; set-up: key to Soil treatment herbicidal activity, Cocklebur: 0 (no control); 100 (complete control); details: 50 g ai/ha, scale 0 (no control) to 100 (complete control)
In short: as §2

[17] = tested on: crabgrass; test: as above; set-up: key to Soil treatment herbicidal activity, Crabgrass: 0 (no control); 100 (complete control); details: 50 g ai/ha, scale 0 (no control) to 100 (complete control)
In short: as §2

[18] = tested on: velvetleaf; test: as above; set-up: key to Soil treatment herbicidal activity, velvet leaf: 0 (no control); 100 (complete control); details: 50 g ai/ha, scale 0 (no control) to 100 (complete control); for pest or weed control at 50 g/ha: Abutilon theophrasti, read-out: Soil treatment herbicidal activity, velvet leaf
In short: as §2

[19] = tested on: fall panicum; test: Herbicidal activity test against upland field weeds (foliar treatment test); set-up: key to Foliar treatment herbicidal activity, Fall panicum: 0 (no control); 100 (complete control); details: 50 g ai/ha, scale 0-100
In short: as §1

[20] = tested on: cocklebur; test: as above; set-up: key to Foliar treatment herbicidal activity, Cocklebur: 0 (no control); 100 (complete control); details: 50 g ai/ha, scale 0-100
In short: as §1

Compound | Foliar treatment herbicidal activity, Crabgrass [2] | Soil treatment herbicidal activity, barnyard grass [4] | Soil treatment herbicidal activity, Indian jointvetch [5] | Soil treatment herbicidal activity, Bindweed [6] | Soil treatment herbicidal activity, Fall panicum [7] | Foliar treatment herbicidal activity, Indian jointvetch [8] | Soil treatment herbicidal activity, quack grass [9] | Foliar treatment herbicidal activity, Bindweed [13] | pest or weed control at 50 g/ha [14] | Soil treatment herbicidal activity, Sorghum [15] | Soil treatment herbicidal activity, Cocklebur [16] | Soil treatment herbicidal activity, Crabgrass [17] | Foliar treatment herbicidal activity, Cocklebur [20] | pest or weed control at 50 g/ha [1] | Foliar treatment herbicidal activity, quack grass [3] | Foliar treatment herbicidal activity, Sorghum [10] | pest or weed control at 50 g/ha [11] | Foliar treatment herbicidal activity, barnyard grass [12] | pest or weed control at 50 g/ha [18] | Foliar treatment herbicidal activity, Fall panicum [19] | also measured
Cn1nnc(C[S+]([O-])Cc2nc(C(F)(F)F)ccc2C(=O)Nc2nnnn2C)n1 (stereo not drawn) [Compound No. 2-104, N-(1-methyl-1H-tetrazol-5-yl)-2-((((2-methyl-2H-tetrazol-5-yl)methyl)sulfinyl)methyl)-6-(trifluoromethyl)nicotinamide] | 100 | 0 | 0 | 0 | 0 | 100 | 0 | 100 | 98% | 0 | 0 | 0 | 100 | – | – | – | – | – | – | – | Foliar treatment herbicidal activity, velvet leaf ([1]; scale 0-100): 100; pest or weed control at 50 g/ha [3]: 30%; plant injury at 50 g/ha ([10]; Sorghum): 80%; Foliar treatment herbicidal activity, black nightshade [11]: 100; pest or weed control at 50 g/ha ([12]; Echinochloa crus-galli): 98%; Soil treatment herbicidal activity, velvet leaf [18]: 100; pest or weed control at 50 g/ha ([19]; Panicum dichotomiflorum): 98%
C=Cc1cc(C(=O)Nc2nnnn2C)c(OCc2nnnn2C)nc1C(F)(F)F [Compound No. 1-18, N-(1-methyl-1H-tetrazol-5-yl)-2-((1-methyl-1H-tetrazol-5-yl)methoxy)-6-(trifluoromethyl)-5-vinylnicotinamide] | 0 | 0 | 0 | – | 0 | 0 | 0 | – | 80% | 0 | 0 | 0 | 0 | 20% | 0 | 0 | 80% | 0 | 20% | 0 | pest or weed control at 50 g/ha [6]: 20%; pest or weed control at 50 g/ha [13]: 20%
CCc1cc(C(=O)Nc2nnnn2C)c(OCc2nnnn2C)nc1C(F)(F)F [Compound No. 1-19, 5-ethyl-N-(1-methyl-1H-tetrazol-5-yl)-2-((1-methyl-1H-tetrazol-5-yl)methoxy)-6-(trifluoromethyl)nicotinamide] | 0 | 0 | 0 | 0 | 0 | 0 | 0 | 0 | 98% | 0 | 0 | 0 | 0 | 20% | 0 | 0 | 90% | 0 | 20% | 0 | –
